Data set [1] deals with Puccinia recondita f. sp. tritici. The experiment in a line: Test A: wheat leaf rust, preventive spray on wheat seedlings, visual disease rating. The data set is classed as in vivo. The source says: (§1) General protocol for preparing test suspensions for Tests A-E: the test compounds were first dissolved in acetone in an amount equal to 3% of the final volume and then suspended at the desired concentration (in ppm) in acetone and purified water (50/50 mix by volume) containing 250 ppm of the surfactant Trem® 014 (polyhydric alcohol esters). The resulting test suspensions were then used in Tests A-E. Spraying a 200 ppm test suspension to the point of run-off on the test plants was the equivalent of a rate of 800 g/ha.
The test suspension was sprayed to the point of run-off on wheat seedlings. The following day the seedlings were inoculated with a spore suspension of Puccinia recondita f. sp. tritici (the causal agent of wheat leaf rust) and incubated in a saturated atmosphere at 20° C. for 24 h, and then moved to a growth chamber at 20° C. for 7 days, after which time visual disease ratings were made.
(§2) Results for Tests A-E are given in Table A. In the Table, a rating of 100 indicates 100% disease control and a rating of 0 indicates no disease control (relative to the controls). A dash (-) indicates no test results. All results are for 200 ppm except where followed by an asterisk “*” which indicates a 250 ppm test suspension was used or a double asterisk “**” which indicates a 50 ppm test suspension was used.

Data set [2] concerns Septoria tritici. The experiment in a line: Test B: wheat leaf blotch, preventive spray on wheat seedlings, visual disease rating. Format: in vivo.
Source text: as §1
The test suspension was sprayed to the point of run-off on wheat seedlings. The following day the seedlings were inoculated with a spore suspension of Septoria tritici (the causal agent of wheat leaf blotch) and incubated in a saturated atmosphere at 24° C. for 48 h, and then moved to a growth chamber at 20° C. for 19 days, after which time visual disease ratings were made.
as §2

Data set [3] has as its system Blumeria graminis f sp. tritici. The experiment in a line: Test D: wheat powdery mildew, preventive spray on wheat seedlings, visual disease rating. The data set is classed as in vivo.
Source text: as §1
The test suspension was sprayed to the point of run-off on wheat seedlings. The following day the seedlings were inoculated with a spore dust of Blumeria graminis f sp. tritici, (also known as Erysiphe graminis f sp. tritici, the causal agent of wheat powdery mildew) and incubated in a growth chamber at 20° C. for 8 days, after which time visual disease ratings were made.
as §2

Data set [4] deals with Botrytis cinerea. The experiment in a line: Test C: tomato Botrytis, preventive spray on tomato seedlings, visual disease rating. The data set is classed as in vivo.
Source text: as §1
The test suspension was sprayed to the point of run-off on tomato seedlings. The following day the seedlings were inoculated with a spore suspension of Botrytis cinerea (the causal agent of tomato Botrytis) and incubated in a saturated atmosphere at 20° C. for 48 h, and then moved to a growth chamber at 24° C. for 3 days, after which time visual disease ratings were made.
as §2

The test system of data set [5] is Septoria nodorum. The experiment in a line: Test E: Septoria glume blotch, preventive spray on wheat seedlings, visual disease rating. Format: in vivo. As to conditions: 200 ppm test suspension.
Source text: as §1
The test suspension was sprayed to the point of run-off on wheat seedlings. The following day the seedlings were inoculated with a spore suspension of Septoria nodorum (the causal agent of Septoria glume blotch) and incubated in a saturated atmosphere at 20° C. for 48 h, and then moved to a growth chamber at 20° C. for 9 days, after which time visual disease ratings were made.
as §2

Setting [6] is: 200 ppm test suspension, 100 = 100% disease control, 0 = no control.

Experimental findings from US20180042234A1, “FUNGICIDAL PYRAZOLES” (E I DU PONT DE NEMOURS AND COMPANY, priority 2015, published 2018) are described below.

Marks after values point to notes of the source that are not given here.

Consider `Cc1nn(C)c(C(O)c2ccc(F)cc2Cl)c1C1CCCCC1` (stereo not drawn) [Compound 11, α-(2-chloro-4-fluorophenyl)-4-cyclohexyl-1,3-dimethyl-1H-pyrazole-5-methanol], for which the melting point fell in the range of 171 to 173 °C. The “Test A disease control rating” value in data set [1] (250 ppm test suspension (*)) was 86* %. Also, in data set [2] (250 ppm test suspension (*)), the “Test B disease control rating” value is 100* %. The “Test D disease control rating” value in data set [3] (250 ppm test suspension (*)) was 93* %. Besides, in data set [4] (250 ppm test suspension (*)), the “Test C disease control rating” value is 24* %.

Take `CCC(=NO)c1c(C)nn(C)c1Oc1c(F)cccc1F` [Compound 47]: in data set [1] (setting [6]), the “Test A disease control rating” value is 0%. Also, the “Test B disease control rating” value in data set [2] (200 ppm test suspension) was 81%. Also, the “Test E disease control rating” value in data set [5] is listed as 0%. Besides, the “Test D disease control rating” value in data set [3] (250 ppm test suspension (*)) is recorded as 89* %. Besides, the “Test C disease control rating” value in data set [4] (200 ppm test suspension) amounted to 0%.

With `CCC(=NOC(C)C)c1c(C)nn(C)c1Oc1c(F)cccc1F` [Compound 48], the “Test A disease control rating” value in data set [1] (setting [6]) was determined as 0%. For the same molecule, in data set [2] (200 ppm test suspension), the “Test B disease control rating” value amounted to 32%. In addition, the “Test E disease control rating” value in data set [5] stood at 0%. Further, in data set [3] (200 ppm test suspension), the “Test D disease control rating” value is listed as 0%. Moreover, in data set [4] (200 ppm test suspension), the “Test C disease control rating” value was 18%.

As to `CCC(=NOC)c1c(C)nn(C)c1Oc1c(F)cccc1F` [Compound 49], the “Test A disease control rating” value in data set [1] (setting [6]) was found to be 0%. Further, the “Test B disease control rating” value in data set [2] (200 ppm test suspension) is listed as 16%. In addition, in data set [5], the “Test E disease control rating” value was 0%. Besides, the “Test D disease control rating” value in data set [3] (200 ppm test suspension) was determined as 0%. The “Test C disease control rating” value in data set [4] (200 ppm test suspension) was found to be 39%.

In the case of `CCON=C(CC)c1c(C)nn(C)c1Oc1c(F)cccc1F` [Compound 50], the “Test A disease control rating” value in data set [1] (setting [6]) was 0%. For the same molecule, the “Test B disease control rating” value in data set [2] (200 ppm test suspension) worked out at 40%. Moreover, the “Test E disease control rating” value in data set [5] came to 0%. In data set [3] (200 ppm test suspension), the “Test D disease control rating” value is given as 0%. Further, the “Test C disease control rating” value in data set [4] (200 ppm test suspension) amounted to 3%.

Regarding `CC=C(CC)c1c(C)nn(C)c1Oc1c(F)cccc1F` [Compound 51], in data set [1] (setting [6]), the “Test A disease control rating” value worked out at 0%. For the same molecule, the “Test B disease control rating” value in data set [2] (200 ppm test suspension) came out at 0%. Besides, the “Test E disease control rating” value in data set [5] was 0%. Moreover, in data set [3] (200 ppm test suspension), the “Test D disease control rating” value was 0%. In addition, the “Test C disease control rating” value in data set [4] (200 ppm test suspension) is on record as 15%.

As for `Cc1nn(C)c(Nc2c(F)cc(Cl)cc2F)c1C1CCCC1` [Compound 52, N-(4-chloro-2,6-difluorophenyl)-4-cyclopenyl-1,3-dimethyl-1H-pyrazol-5-amine], the “Test A disease control rating” value in data set [1] (setting [6]) was 89%. The “Test B disease control rating” value in data set [2] (200 ppm test suspension) is given as 99%. For the same molecule, in data set [5], the “Test E disease control rating” value was 0%. In addition, the “Test D disease control rating” value in data set [3] (200 ppm test suspension) is reported as 98%. Besides, the “Test C disease control rating” value in data set [4] (200 ppm test suspension) stood at 96%.

As usually defined, the melting point is the temperature, or range, at which the solid turns liquid.
